Data as given in publication PMC4919790, “Allosteric modulation of AURKA kinase activity by a small-molecule inhibitor of its protein-protein interaction with TPX2” (Scientific Reports, 2016).
Like-named read-outs stand apart in the source and are kept apart here.

Key:
[1] = target: T1, AURKA-TPX2 interaction (His-tagged AURKA123–403 / TAMRA-labelled TPX2 1–43) (Homo sapiens, UniProt O14965); test: Fluorescence anisotropy (FA) competition assay: displacement of TAMRA-TPX2 1-43 from AURKA123-403
T1 sequence (O14965 123-403): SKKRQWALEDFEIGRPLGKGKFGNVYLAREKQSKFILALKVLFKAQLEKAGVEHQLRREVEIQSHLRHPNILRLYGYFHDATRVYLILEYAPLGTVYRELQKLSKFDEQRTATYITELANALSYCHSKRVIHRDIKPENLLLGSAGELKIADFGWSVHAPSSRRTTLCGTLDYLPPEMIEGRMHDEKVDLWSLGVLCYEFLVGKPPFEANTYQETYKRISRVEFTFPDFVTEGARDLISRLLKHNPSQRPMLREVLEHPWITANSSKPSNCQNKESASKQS
Description: The HTS actives were resupplied and retested to check for dose-dependent inhibition of the PPI in FA assay.

[2] = tested on: AURKA on the spindle in mitotic HeLa cells; test: High-content microscopy assay of AURKA mislocalisation from spindle microtubules; format: cell-based; settings: Homo sapiens, 2 h treatment, % cells with below threshold AURKA intensity under TPX2 mask
Description: For quantitative determination of Aurora-A mislocalisation from spindle microtubules, cells were plated at a density of 0.75 × 10^5 cells per well of a clear flat bottom 96-well plate. On each plate a set of wells were treated with doxycycline as a positive control. After 24 h the compounds were diluted in […] Bortezomib (Selleck Chemicals) and treated for 2 h. Hereafter all steps were carried out at room temperature. The cells were fixed by addition of freshly prepared PHEM-buffered formaldehyde (100 μL per well) for 10 minutes (100 mM PIPES, 20 mM HEPES, 5 mM EGTA, 2 mM MgCl2, 0.2% TritonX-100, 6.4% formaldehyde). These were permeablised with 100 μl of PBS-T-T (1X PBS/0.1% Triton- 100/0.1% Tween-20) for 10 min, blocked in 3% BSA-PBS-T-T for 30 min. Hereafter all the steps including dilution of antibodies was done in the blocking solution. A cocktail of primary antibodies (50 μL, mouse anti-TPX2, Abcam 32795, 18D5-1, 1:500; rabbit anti-Aurora A, Millipore EP1008Y, 1:1000) for 1.5 h and washed thrice with the blocking solution. […]
The plates were scanned using Molecular Translocation protocol with 40X objective with 3 flurophore recognising channels. […] The software generated an overlay of TPX2-stained spindles (channel 2), and the average intensity of the Aurora-A (channel 3) within that mask was scored. […]

[3] = target: T2, AURKAGSMGS-126-390 (non-phosphorylated, uncleaved His-tag) (Homo sapiens, UniProt O14965); test: In vitro auto-phosphorylation assay (anti-pT288 Western blot); format: biochemical; settings: AurkinA 100 μM, ATP 100 μM, protein 30 μM, up to 40 min
T2 construct: Aurora-A kinase construct AurAGSMGS-126-391 was purified as described above; made in house; host or cells: E. coli BL21 (DE3) with pUBS550, co-expressed with lambda phosphatase
T2 sequence (O14965 126-391): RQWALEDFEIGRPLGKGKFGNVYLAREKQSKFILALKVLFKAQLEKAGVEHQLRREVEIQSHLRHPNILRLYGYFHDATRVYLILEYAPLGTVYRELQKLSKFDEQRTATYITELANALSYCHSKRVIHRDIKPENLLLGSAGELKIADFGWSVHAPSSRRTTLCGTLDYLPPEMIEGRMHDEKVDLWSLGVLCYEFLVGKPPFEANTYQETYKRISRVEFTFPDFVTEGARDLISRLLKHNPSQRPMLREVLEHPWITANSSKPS
Description: It has been extensively reported that auto-phosphorylation of […] in the activation loop stimulates AURKA kinase activity. […] For autophosphorylation experiments Aurora-A kinase construct […]-126-391 was purified as described above but using buffers containing no ATP and His-tag was left on the N-terminus. […] Control sample contained JNJ-7706621 (100 μM) that was added to the reaction prior ATP. 15 ng of each sample were run in 11% SDS-PAGE gels. Western blots were prepared by electro-blotting SDS-PAGE gels onto PVDF membranes (Millipore) and probing with anti-penta-his-tag antibody (1:2000 dilution, Qiagen, 34660) or anti-Aurora-A phosphoT288 antibodies (1:1000 dilution, Abcam, ab195748), followed by HRP conjugated […]-mouse antibodies (GE Healthcare) or HRP conjugated goat anti-rabbit antibodies (Abcam), respectively.

[4] = target: T3, AURKA (Aurora-AG-126-390) (Homo sapiens, UniProt O14965); test: Isothermal titration calorimetry; format: binding; settings: for Kd: 25 °C; for Ligand efficiency (Leff): calculated using Ki or Kd values
T3 construct: was titrated into Aurora-AG-126-390 protein solution (30 μM); extra N-terminal Gly from cloning (the 'G' of the construct name); 6xHis (read by me from reverse primer 4); made in house; host or cells: E. coli BL21 (DE3) with pUBS550, co-expressed with lambda phosphatase (pBAT4-λPP)
T3 sequence (O14965 126-390): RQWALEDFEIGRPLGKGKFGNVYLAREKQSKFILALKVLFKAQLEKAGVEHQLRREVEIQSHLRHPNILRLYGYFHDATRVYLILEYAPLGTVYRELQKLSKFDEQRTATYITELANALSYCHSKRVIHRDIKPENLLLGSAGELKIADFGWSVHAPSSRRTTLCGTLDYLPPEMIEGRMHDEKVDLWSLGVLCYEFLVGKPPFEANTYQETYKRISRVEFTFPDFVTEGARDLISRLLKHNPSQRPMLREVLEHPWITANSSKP
Description: Calorimetric titrations were performed on an iTC200 (MicroCal, Inc.) device. Protein was buffer exchanged into ITC buffer (Buffer C with 2% DMSO). Titration experiments were performed at 25 °C with an initial injection (0.4 μL) at a duration of 0.8 s, followed by 19 injections (2 μL) at a duration of 4 s. […] Binding isotherms were fit by non-linear regression using the single-site model provided by Origin software (MicroCal, Inc.). The stoichiometry of the interaction (N), equilibrium association constant (Ka) and change of enthalpy (ΔH) were floated during the fitting.

pT287/pT288 AURKA126–390 = target: T4, pT287/pT288 AURKA126–390 (Homo sapiens, UniProt O14965); test: HTRF in vitro kinase assay (KinEASE, Cisbio); format: biochemical; settings: excess inhibitor (25x Ki), absence of TPX2
T4 construct: a T287/T288 doubly-phosphorylated recombinant AURKA126–390 in the absence of TPX2; 6xHis (inferred from reverse primer 4 of AurAG-126-390); made in house; host or cells: E. coli BL21 (DE3) with pUBS550
T4 sequence (O14965 126-390): T3 sequence (O14965 126-390)
Description: To test this hypothesis, we used a commercially available in vitro kinase assay (KinEASE, Cisbio) to measure AURKA-dependent phosphorylation of a generic peptide substrate by homogeneous time-resolved fluorescence (HTRF) assay (Supplementary Fig. 9). Enzymatic phosphorylation occurred in the presence of the substrate peptide and ATP, and the phosphorylated substrate was subsequently detected in a proprietary antibody detection step. These studies were performed using a T287/T288 doubly-phosphorylated recombinant AURKA126–390 in the absence of TPX2.
The volume of enzymatic reaction was 10 μL, [AURKA] = 5 ng/well, excess propriatory peptide substrate (1 μM) and ATP (100 μM). The reaction was incubated for 10 min. MLN8237 is an ATP-competitive inhibitor used as a positive control. […] Error bars represent standard deviation (n = 3).

[5] = target: T5, AURKA / mCherry-TPX2 1–43 (Homo sapiens, UniProt O14965); test: Co-immunoprecipitation of AURKA and mCherry-TPX2 1-43 from HeLa cell lysates; settings: cell lysates (500 µg) incubated 2 h, 25-400 µM, +DOX
T5 construct: endogenous in cells; host or cells: HeLa FlpIn TREx lysate; AURKA endogenous, mCherry-TPX2 1-43 stably transfected and doxycycline-induced
T5 sequence (O14965 1-403): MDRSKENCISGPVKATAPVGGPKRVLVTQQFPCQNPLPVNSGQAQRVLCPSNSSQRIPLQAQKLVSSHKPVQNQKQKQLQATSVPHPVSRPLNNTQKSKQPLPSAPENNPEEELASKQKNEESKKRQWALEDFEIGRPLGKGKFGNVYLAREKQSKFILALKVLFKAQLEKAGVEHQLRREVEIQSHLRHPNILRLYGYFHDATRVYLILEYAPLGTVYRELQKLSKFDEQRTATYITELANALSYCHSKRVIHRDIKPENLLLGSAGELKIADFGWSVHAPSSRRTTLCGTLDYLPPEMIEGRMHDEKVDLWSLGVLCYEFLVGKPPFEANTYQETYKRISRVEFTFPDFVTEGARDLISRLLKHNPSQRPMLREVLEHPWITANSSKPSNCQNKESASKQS
Description: Stable HeLa FlpIn TREx cell line expressing a fusion mCherry-TPX2_1–43 protein upon addition of doxycycline ([…]) was generated (Supplementary Methods). This cell line was used for further experiments. For immunoblotting, proteins were extracted in lysis buffer (50 mM HEPES, pH 7.4; 100 mM NaCl, 0.5% NP-40, 10 mM EDTA, 20 mM β-glycerophosphate, 1 mM DTT, 1 mM sodium orthovanadate, 1 mM PMSF, protease inhibitors and phosphatase inhibitor (Roche)). 0.5 mg of lysate was used for co-immunoprecipitation. mCherry pull down was performed using RFP-trap (Chromotrap) following manufacturers’ instructions. Extracts were resolved by SDS-PAGE, transferred to PVDF membrane, blocked in TBS-Tween (50 mM Tris pH 7.6, 150 mM NaCl, 0.1% Tween-20) plus 5% non-fat dried milk, and probed with primary antibodies at 4 °C overnight. Membrane was incubated with secondary mouse HRP (GE Healthcare, NXA931) and rabbit HRP antibodies (Jackson Laboratories, 111-036-047) for 1 h at room temperature and the signal was developed using ECL or ECL prime reagent (GE Healthcare).
co -‐immunoprecipitation
(1 picture or pasted object on this page, not shown here)

[6] = tested on: phosphorylated T288 (pT288) AURKA in mitotic HeLa cells; test: High-content AURKA T288-dephosphorylation assay; format: cell-based; settings: Homo sapiens, read-out: EC50, % cells with below threshold pT288
Description: A modified version of the Aurora A mislocalisation assay using the same cells, doxycycline-treated controls, drugging plan, Bortezomib treatment, fixing protocol, Hoechst staining and secondary antibodies as above. The primary antibodies used were anti-phospho Aurora A Thr288 (Cell Signaling, #3079, 1:500) and anti-Histone H3 phospho S10 (Abcam, 14955, 1:2000). High-content imaging settings were the same as for the mislocalisation assay, but analysis was performed using the CellHealthProfiling v4 Bioapplication. Cells were identified in the Hoechst channel as above, and the resulting nuclear mask used for all subsequent measurements. Mitotic cells were selected from the images on the basis of phospho-histone H3 positivity, using a threshold 10 times above the image background. These selected cells were then measured for phospho-Aurora A staining intensity within a target area defined by expanding the nuclear mask by 8 pixels then collapsing it using a threshold for the phospho-Aurora channel, set to 3 times the background staining in this channel. Assay thresholds were calculated from the negative control wells of each plate as for the mislocalisation assay and ‘% dephosphorylated Aurora A T288’ scores were calculated for each well. EC50 values were calculated from four-parameter dose-response curves that were fitted using Prism GraphPad software (La Jolla, CA).

[7] = Average IC50, Supplementary Table 1, FA assay
[8] = Calculated Ki, Supplementary Table 1, free-concentration corrected Cheng-Prusov
[9] = IC50, inhibition of AURKA:TPX2 interaction in FA assay, Fig. 1b
[10] = Ki from FA competition assay, free-concentration corrected Cheng-Prusov equations

IC50 [1, 7] [µM] | Ki [1, 8] [µM] | N (stoichiometry, ITC fit) ([4]; single-site model fit) [Sites] | ∆H (ITC fit) ([4]; single-site model fit) [kJ/mol] | ∆S (ITC fit) ([4]; single-site model fit) [cal/mol/deg] | IC50 [1, 9] [µM] | Ki [1, 10] [µM] | Ligand efficiency (Leff) [4] | Structure (SMILES) | further results
34.4 | 7.4 |  |  |  |  |  |  | O=C(O)c1cc(-c2cccc(Br)c2)nc2ccc(Cl)cc12 [AA29] | 
25.6 | 5.5 |  |  |  |  |  |  | O=C(O)c1cc(-c2cccc(Br)c2)nc2ccccc12 [AA30] | 
 |  | 0.924 | -96.61 | -52.6 |  |  |  | O=C(O)c1cc(-c2cccc(Br)c2)nc2c(F)cccc12 [AurkinA, 2-(3-bromophenyl)-8-fluoroquinoline-4-carboxylic acid] | EC50 [2]: 85 µM; Effect on auto-phosphorylation of AURKA (pT288) [3]: significantly delayed; -T∆S of binding ([4]; ITC): 65.7 kJ/mol; ∆H of binding ([4]; ITC): -96.7 kJ/mol; Maximal inhibition of kinase activity (plateau) (pT287/pT288 AURKA126–390): ~ 75%; Effect on co-immunoprecipitation of AURKA with RFP (mCherry-TPX2 1-43) [5]: inhibited; EC50 [6]: 135 µM
 |  | 0.975 ±0.0300 | -24.76 ± 1.003 | 2.92 | 41 | 8.9 | 0.25 | O=C(O)c1ccccc1NC(=O)c1cc(-c2ccccc2)nc2ccccc12 [compound 1] | Effect of JNJ-7706621 on the compound's inhibition of the AURKA-TPX2 1-43 interaction ([1]; [JNJ] = 0.4 μM vs DMSO): unaffected; Kd ([4]; read-out: Kd (ITC)): 10.6 µM; Kd ([4]; read-out: pKd (ITC) (converted)): 10.5 µM; K (association constant, ITC fit) ([4]; single-site model fit): 94700 ± 7610 M⁻¹
289 | 62.5 |  |  |  | 63 | 68 | 0.31 | O=C(O)c1cc(-c2ccccc2)nc2ccccc12 [compound 3, 2-phenyl-4-carboxyquinoline, reference compound] | 
